The values that follow are results of earlier work, collected in patent publication US20110246079A1, “INDIVIDUAL 5-FLUOROURACILE DOSE OPTIMIZATION IN FOLFOX TREATMENT” (Centre Regional De Lutte Contre, priority 2008, published 2011).

One data set has as its system patients. The note with it: 5-FU treatment.
For data set [1], the target named is T1, dihydropyrimidine dehydrogenase (DPD) (Homo sapiens, UniProt Q12882).
T1 construct: This ubiquitous enzyme is a major factor of 5-FU biodisponibility, since in a subject with normal DPD enzymatic activity; endogenous in cells; host or cells: Subject or patient in vivo (enzyme described as ubiquitous)
T1 sequence (Q12882 4-1025): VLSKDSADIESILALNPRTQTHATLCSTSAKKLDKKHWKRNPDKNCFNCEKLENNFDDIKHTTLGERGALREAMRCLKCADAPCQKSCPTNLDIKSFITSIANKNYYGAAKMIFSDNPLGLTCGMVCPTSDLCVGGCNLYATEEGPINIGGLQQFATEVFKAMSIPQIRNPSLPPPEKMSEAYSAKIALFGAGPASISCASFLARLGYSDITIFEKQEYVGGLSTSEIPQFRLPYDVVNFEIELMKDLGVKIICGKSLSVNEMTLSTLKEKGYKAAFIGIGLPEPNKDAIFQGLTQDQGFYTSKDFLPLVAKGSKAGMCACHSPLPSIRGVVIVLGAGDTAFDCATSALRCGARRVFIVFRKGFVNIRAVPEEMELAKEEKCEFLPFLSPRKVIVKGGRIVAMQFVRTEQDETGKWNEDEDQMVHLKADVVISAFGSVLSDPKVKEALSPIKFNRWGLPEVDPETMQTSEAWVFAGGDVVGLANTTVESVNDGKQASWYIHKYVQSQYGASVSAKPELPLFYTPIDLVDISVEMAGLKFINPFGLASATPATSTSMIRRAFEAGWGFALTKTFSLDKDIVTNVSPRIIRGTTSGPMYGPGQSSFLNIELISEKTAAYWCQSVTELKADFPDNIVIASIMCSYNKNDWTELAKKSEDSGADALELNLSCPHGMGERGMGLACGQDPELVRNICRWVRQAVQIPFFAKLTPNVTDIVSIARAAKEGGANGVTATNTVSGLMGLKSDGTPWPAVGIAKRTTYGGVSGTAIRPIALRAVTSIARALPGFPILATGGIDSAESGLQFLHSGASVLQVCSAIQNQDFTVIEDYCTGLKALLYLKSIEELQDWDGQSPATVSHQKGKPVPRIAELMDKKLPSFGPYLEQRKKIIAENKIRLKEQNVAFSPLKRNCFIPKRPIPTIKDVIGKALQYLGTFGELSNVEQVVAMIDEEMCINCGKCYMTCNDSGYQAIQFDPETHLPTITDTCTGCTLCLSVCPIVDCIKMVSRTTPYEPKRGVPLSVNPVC
The note with it: subject with normal DPD enzymatic activity.

The test system of the next data set is 5-FU metabolism. The conditions noted are these: in vivo.

In the case of `O=c1[nH]cc(F)c(=O)[nH]1` [5-FU, 5-fluorouracile], in the data set on patients, the “death, treated patients” value is 0.8% and the “very early polyvisceral toxicity, patients” value is given as 5-8%. Moreover, the “severe grade 3-4 toxicity” value in the data set on patients (standard doses) was 20-25%. Further, in data set [1], the “administered 5-FU available for / metabolized by the anabolic pathway” value is on record as 20%. Where the note is “after the beginning of the 5-FU continuous infusion”, the “time for 5-FU plasmatic levels to reach a plateau” value is “about 1 hour”. Where the note is “in vivo”, the half-life in blood result is given as “very short”.

As to `O=C1[O][Pt]2([NH][C@@H]3CCCC[C@H]3[NH]2)[O]C1=O` [oxaliplatin], in the data set with 5-FU metabolism, the “effect on 5-FU metabolism” value is reported as “inhibits 5-FU metabolism”.
